Source: ChEMBL document CHEMBL1201862, “PubChem BioAssay data set” (2004)
Active and inactive are the calls of the source.

Assays:
[1] = rise of 4N DNA cells, HeLa – IC50, dose response (AID 1117351); assay type: functional, cell-based
Insulin-degrading enzyme [2] = biological target: T1, Insulin-degrading enzyme (Homo sapiens, UniProt P14735); experiment: recombinant IDE activation, cell-free – biochemical, fluorescence polarization, counter-screen for IDE activator project, dose response (AID 588681)
T1 sequence (P14735 whole entry): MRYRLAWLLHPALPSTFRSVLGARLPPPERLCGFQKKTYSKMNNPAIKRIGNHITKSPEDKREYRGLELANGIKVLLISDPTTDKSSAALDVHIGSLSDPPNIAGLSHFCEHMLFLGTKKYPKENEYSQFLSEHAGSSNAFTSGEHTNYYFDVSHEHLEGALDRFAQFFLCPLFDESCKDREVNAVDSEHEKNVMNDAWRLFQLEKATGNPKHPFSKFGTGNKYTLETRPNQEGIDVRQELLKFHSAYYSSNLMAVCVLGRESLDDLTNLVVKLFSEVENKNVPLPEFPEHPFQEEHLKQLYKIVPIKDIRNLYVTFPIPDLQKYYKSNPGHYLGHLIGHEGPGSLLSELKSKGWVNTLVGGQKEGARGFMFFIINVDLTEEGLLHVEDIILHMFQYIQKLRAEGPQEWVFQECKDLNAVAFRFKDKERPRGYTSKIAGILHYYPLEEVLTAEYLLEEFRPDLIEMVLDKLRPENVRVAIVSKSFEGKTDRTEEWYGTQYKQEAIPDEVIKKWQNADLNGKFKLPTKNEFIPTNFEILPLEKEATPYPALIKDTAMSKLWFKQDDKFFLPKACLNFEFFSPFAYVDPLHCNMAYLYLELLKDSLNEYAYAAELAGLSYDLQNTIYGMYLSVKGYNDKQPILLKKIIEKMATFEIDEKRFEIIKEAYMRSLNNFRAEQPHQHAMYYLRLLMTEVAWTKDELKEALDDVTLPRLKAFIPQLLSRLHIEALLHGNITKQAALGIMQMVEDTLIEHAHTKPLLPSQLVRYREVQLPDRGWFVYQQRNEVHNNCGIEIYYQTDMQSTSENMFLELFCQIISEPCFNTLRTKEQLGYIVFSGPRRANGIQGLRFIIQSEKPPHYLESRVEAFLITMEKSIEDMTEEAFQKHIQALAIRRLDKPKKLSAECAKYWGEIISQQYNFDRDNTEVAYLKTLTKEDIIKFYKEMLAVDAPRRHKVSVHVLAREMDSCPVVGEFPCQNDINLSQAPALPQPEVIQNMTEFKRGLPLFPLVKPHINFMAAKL

[3] = biological target: Apoptotic protease-activating factor 1 (Homo sapiens, UniProt O14727); assay type: functional
HEK293 [4] = experiment: membrane integrity loss in HEK cells – cell-based, fluorescence, cytotoxicity control for IDE activator project, dose response (AID 588440); assay type: functional; conditions: Homo sapiens;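 note: cytotoxicity by LDH release measuring loss of membrane integrity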
Large T antigen = Large T antigen (Simian virus 40, UniProt P03070); assay type: functional, Betapolyomavirus macacae;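 note: Confirmatory-stage PubChem screen for compounds that inhibit SV40 T antigen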
[5] = biological target: T2, Ubiquitin-conjugating enzyme E2 N (Homo sapiens, UniProt P61088); assay type: functional
T2 sequence (P61088 whole entry): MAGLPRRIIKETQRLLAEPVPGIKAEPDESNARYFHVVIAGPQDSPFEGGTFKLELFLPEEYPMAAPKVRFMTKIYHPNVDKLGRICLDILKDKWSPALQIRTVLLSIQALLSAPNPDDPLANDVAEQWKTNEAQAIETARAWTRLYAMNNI

[6] = biological target: Dual specificity tyrosine-phosphorylation-regulated kinase 1A (Rattus norvegicus, UniProt Q63470); assay type: biochemical, Homo sapiens
[7] = biological target: T2, Ubiquitin-conjugating enzyme E2 N; assay type: functional; remark: listed apart in the source
[8] = glucagon-like peptide-1 release potency in STC-1, concentration-response, half-maximal inhibitory concentration in the STC-1 line (AID 1117345); assay type: functional, cell-based
Insulin-degrading enzyme [9] = biological target: T1, Insulin-degrading enzyme; experiment: cellular IDE activation of Abeta substrate cleavage – fluorescence polarization, HEK cells, dose response (AID 588439); assay type: functional, cell-based
[10] = Potency on glucagon-like peptide 1 release, dose-response in NCI-H716 cell line, half maximal inhibitory concentration (AID 1117344); assay type: functional, cell-based
HEK293 [11] = experiment: optical interference in Abeta FP readout, dose response, artefact control for IDE activator project, biochemical, fluorescence polarization (AID 588442); assay type: functional, cell-based; conditions: Homo sapiens
INS1 = experiment: INS-1E survival protection against cytokine death – cell-based, luminescence, retest, dose response (AID 449756); assay type: functional; conditions: Rattus norvegicus;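 note: cell death triggered by IL-1 beta plus TNF-alpha plus IFN-gamma mixture; protective hits raise ATP signal compared with cytokine alone wells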
Bcl-2-related protein A1 = biological target: T3, Bcl-2-related protein A1 (Mus musculus, UniProt Q07440); assay type: functional;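 note: confirmatory dose–response counterscreen on Bfl-1, used to check hits from a UBC13 polyubiquitin inhibitor campaign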
T3 sequence (Q07440 whole entry): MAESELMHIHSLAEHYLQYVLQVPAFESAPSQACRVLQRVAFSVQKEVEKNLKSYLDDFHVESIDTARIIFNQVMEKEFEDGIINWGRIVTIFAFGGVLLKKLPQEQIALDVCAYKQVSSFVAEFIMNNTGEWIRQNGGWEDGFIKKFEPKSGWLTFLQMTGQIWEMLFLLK

[12] = rise of 2N DNA cells, HeLa – IC50, dose response (AID 1117349); assay type: functional, cell-based
[13] = biological target: Heat shock protein HSP 90-alpha (Homo sapiens, UniProt P07900); assay type: functional, organism-based
[14] = Trypanosoma cruzi growth suppression in host cells – NIH3T3 host cells, beta-gal luminescence, confirmation (AID 2044); assay type: functional, cell-based;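 note: intracellular parasites grown in NIH/3T3 mouse fibroblasts as host cells; luminescent beta-galactosidase reporter signal from transgenic T. cruzi replicating inside host cells; inhibitors lower the luminescence signal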
Protein RecA = biological target: T4, Protein RecA (Mycobacterium tuberculosis, UniProt P9WHJ3); experiment: Fluorescence Cell-Free Homogeneous Dose Retest to Identify Inhibitors of RecA-Intein Splicing Activity. [Related pubchem assays (depositor defined):AID2097, AID2223, AID489010, AID492950]; assay type: functional
T4 sequence (P9WHJ3 whole entry): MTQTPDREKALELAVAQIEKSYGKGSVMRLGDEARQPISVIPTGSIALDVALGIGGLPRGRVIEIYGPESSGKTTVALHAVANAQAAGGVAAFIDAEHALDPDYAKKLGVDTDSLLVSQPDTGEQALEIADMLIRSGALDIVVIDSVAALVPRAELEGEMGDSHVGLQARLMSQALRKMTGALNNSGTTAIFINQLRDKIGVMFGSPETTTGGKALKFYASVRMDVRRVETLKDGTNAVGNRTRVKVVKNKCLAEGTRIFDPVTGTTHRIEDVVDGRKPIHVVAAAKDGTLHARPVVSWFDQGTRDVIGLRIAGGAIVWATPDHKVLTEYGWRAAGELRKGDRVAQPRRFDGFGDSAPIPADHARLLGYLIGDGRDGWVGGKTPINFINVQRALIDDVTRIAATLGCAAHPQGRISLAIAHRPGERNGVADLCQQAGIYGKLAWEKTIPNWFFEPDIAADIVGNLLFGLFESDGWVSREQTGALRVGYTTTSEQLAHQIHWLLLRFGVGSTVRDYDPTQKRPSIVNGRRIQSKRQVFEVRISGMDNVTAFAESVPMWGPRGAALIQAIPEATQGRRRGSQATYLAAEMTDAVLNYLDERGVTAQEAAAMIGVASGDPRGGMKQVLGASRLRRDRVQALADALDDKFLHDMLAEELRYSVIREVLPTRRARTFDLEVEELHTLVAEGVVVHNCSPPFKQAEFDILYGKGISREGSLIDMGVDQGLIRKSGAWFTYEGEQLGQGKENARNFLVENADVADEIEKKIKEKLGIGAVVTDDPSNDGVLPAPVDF

[15] = reduction of Shn3 3'UTR-driven luciferase in osteoblasts – cell-based, Clone20 osteoblasts, firefly luciferase, cherry-picked, dose response (AID 624132); assay type: functional;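 note: firefly luciferase luminescence from reporter carrying the Shn3 3'UTR in osteoblasts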
[16] = loss of viability in HepG2 cells – cell-based, CellTiter-Glo, cherry-picked, cytotoxicity control for Shn3 inhibitor project, dose response (AID 624134); assay type: functional
[17] = HPDE-C7 pancreatic duct cell viability loss – fluorescence, HTS (AID 430); assay type: functional, cell-based; conditions: Homo sapiens
[18] = biological target: DNA damage-inducible transcript 3 protein (Mus musculus, UniProt P35639); assay type: functional, Cricetulus griseus
[19] = non-specific 3'UTR reporter inhibition in Clone20-Shn3RL – cell-based, Renilla luciferase, cherry-picked, counter-screen for Shn3 inhibitor project, dose response (AID 624133); assay type: functional
Beta Lactamase = Beta Lactamase (Pseudomonas aeruginosa, UniProt Q932Y6); experiment: BLA reporter interference, concentration series – BLA reporter cells, FRET fluorescence, artefact control for TLR9-MyD88 binding inhibitor project, dose response (AID 588341); assay type: cell-based;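 note: cell based assay in CHO-K1 cells stably expressing beta-lactamase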
[20] = biological target: T5, Heat shock factor protein 1 (Mus musculus, UniProt P38532); experiment: decrease of HSF1-responsive luciferase luminescence – cell-based, NIH3T3, dose retest, confirmation (AID 2382); assay type: functional;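 note: NIH3T3 fibroblasts with HSF1-driven luciferase reporter stressed by proteasome inhibitor MG132; luminescence from HSF1-driven luciferase expression after 8 hours of MG132 stress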
T5 sequence (P38532 whole entry): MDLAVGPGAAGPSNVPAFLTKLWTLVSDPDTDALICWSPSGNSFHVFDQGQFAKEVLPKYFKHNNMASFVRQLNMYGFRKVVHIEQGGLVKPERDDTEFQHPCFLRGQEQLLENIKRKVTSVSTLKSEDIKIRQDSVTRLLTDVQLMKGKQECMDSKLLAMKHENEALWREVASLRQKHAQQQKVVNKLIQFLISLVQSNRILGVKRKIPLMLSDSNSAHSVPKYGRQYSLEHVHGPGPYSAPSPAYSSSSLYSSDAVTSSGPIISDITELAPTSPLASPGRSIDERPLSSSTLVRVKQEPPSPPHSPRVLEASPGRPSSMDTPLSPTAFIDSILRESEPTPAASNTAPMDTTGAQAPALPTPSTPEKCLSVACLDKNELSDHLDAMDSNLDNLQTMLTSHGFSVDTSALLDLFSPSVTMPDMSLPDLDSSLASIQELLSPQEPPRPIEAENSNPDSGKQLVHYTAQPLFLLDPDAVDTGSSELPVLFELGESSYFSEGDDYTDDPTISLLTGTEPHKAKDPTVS

[21] = viability loss of HPDE-C7K cells – cell-based, fluorescence, HTS, primary screen (AID 431); assay type: functional; conditions: Homo sapiens
[22] = biological target: T6, Replicative DNA helicase DnaB (Mycobacterium tuberculosis, UniProt P9WMR3); experiment: DnaB intein splicing inhibitors, dose response, biochemical, cell-free fluorescence (AID 449749); assay type: functional
T6 sequence (P9WMR3 whole entry): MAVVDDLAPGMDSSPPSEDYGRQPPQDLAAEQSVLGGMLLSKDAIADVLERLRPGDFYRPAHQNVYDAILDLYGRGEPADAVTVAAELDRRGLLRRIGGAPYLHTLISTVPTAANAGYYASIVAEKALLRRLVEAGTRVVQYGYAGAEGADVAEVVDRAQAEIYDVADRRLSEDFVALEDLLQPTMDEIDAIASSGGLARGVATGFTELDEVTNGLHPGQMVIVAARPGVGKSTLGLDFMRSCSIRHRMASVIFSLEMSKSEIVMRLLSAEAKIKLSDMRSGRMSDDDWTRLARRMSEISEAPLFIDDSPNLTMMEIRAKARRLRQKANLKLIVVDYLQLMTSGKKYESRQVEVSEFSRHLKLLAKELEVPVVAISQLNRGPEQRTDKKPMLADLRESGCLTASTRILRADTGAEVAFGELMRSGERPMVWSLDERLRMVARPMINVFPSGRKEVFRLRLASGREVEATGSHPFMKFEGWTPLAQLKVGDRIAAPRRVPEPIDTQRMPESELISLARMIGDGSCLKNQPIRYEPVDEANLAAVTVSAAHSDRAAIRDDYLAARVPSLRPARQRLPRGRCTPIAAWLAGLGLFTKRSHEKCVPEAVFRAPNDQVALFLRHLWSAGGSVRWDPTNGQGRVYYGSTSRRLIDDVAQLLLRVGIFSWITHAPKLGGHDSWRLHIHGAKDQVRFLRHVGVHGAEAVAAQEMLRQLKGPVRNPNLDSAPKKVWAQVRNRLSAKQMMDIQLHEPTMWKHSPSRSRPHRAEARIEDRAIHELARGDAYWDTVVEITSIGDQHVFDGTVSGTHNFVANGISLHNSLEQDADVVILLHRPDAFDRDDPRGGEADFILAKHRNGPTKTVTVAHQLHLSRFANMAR

[23] = NIH3T3 cell viability loss – ATP luminescence, mouse fibroblasts, counter-screen, dose response (AID 2010); assay type: functional, cell-based;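 note: cells exposed to compound for about 90 hours before reading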
[24] = biological target: Sphingosine 1-phosphate receptor 1 (Homo sapiens, UniProt P21453); assay type: functional;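 note: Tango beta-arrestin reporter U2OS cells stimulated with S1P near its EC80; inhibitor potency meaning antagonism of receptor activation by the natural agonist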
[25] = microbe, parasite or virus in culture; assay type: functional; conditions: Mycobacterium tuberculosis
[26] = biological target: Sphingosine 1-phosphate receptor 4 (Homo sapiens, UniProt O95977); experiment: Fluorescence dose response cell-based high throughput screening assay for antagonists of the Sphingosine 1-Phosphate Receptor 4 (S1P4). [Related pubchem assays: 1524 (Confirmation in triplicates.), 1510 (Primary screen.)]; assay type: functional
CHO = CHO cell viability loss, potency – luminescence, cytotoxicity control for TLR9-MyD88 binding inhibitor project, dose response (AID 588339); assay type: functional, cell-based, hamster; conditions: Cricetulus griseus;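 note: CHO cells stably coexpressing TLR9 and MyD88 fusions from primary screen; compound exposure lasted 48 hours before viability readout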

Chain of Large T antigen (P03070 whole entry): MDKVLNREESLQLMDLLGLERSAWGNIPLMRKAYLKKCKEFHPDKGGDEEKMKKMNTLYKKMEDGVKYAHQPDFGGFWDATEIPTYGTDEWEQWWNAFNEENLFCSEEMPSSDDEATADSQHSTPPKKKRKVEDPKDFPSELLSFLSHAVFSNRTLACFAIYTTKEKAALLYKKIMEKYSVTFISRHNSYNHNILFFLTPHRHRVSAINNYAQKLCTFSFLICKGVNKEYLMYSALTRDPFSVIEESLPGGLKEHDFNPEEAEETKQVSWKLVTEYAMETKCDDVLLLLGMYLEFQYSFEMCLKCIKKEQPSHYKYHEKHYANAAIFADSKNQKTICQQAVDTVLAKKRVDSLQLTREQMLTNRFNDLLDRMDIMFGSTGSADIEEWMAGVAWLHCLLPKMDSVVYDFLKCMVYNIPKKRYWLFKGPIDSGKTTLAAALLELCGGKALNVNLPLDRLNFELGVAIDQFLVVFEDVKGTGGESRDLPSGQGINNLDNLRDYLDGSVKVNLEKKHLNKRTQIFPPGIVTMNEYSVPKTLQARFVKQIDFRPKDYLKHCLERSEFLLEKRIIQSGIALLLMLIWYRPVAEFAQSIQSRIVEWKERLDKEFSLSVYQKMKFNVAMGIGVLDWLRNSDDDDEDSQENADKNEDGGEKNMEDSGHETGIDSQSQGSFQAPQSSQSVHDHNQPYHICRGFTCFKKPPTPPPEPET
Chain of DNA damage-inducible transcript 3 protein (P35639 whole entry): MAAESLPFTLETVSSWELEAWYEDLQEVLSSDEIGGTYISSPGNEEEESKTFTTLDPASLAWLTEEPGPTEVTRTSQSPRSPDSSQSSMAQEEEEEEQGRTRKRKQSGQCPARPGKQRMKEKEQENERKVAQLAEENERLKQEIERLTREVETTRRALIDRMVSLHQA
Chain of Sphingosine 1-phosphate receptor 1 (P21453 whole entry): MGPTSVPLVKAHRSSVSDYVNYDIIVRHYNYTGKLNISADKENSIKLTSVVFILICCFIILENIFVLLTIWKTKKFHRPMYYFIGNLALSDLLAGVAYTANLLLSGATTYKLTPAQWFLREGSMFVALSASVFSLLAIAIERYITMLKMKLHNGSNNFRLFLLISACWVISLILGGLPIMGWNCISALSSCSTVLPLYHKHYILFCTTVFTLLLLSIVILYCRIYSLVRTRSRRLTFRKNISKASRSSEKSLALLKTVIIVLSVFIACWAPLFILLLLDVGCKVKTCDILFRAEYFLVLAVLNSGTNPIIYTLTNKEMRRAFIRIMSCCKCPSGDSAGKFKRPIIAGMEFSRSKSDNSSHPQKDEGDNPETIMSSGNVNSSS
Chain of Apoptotic protease-activating factor 1 (O14727 whole entry): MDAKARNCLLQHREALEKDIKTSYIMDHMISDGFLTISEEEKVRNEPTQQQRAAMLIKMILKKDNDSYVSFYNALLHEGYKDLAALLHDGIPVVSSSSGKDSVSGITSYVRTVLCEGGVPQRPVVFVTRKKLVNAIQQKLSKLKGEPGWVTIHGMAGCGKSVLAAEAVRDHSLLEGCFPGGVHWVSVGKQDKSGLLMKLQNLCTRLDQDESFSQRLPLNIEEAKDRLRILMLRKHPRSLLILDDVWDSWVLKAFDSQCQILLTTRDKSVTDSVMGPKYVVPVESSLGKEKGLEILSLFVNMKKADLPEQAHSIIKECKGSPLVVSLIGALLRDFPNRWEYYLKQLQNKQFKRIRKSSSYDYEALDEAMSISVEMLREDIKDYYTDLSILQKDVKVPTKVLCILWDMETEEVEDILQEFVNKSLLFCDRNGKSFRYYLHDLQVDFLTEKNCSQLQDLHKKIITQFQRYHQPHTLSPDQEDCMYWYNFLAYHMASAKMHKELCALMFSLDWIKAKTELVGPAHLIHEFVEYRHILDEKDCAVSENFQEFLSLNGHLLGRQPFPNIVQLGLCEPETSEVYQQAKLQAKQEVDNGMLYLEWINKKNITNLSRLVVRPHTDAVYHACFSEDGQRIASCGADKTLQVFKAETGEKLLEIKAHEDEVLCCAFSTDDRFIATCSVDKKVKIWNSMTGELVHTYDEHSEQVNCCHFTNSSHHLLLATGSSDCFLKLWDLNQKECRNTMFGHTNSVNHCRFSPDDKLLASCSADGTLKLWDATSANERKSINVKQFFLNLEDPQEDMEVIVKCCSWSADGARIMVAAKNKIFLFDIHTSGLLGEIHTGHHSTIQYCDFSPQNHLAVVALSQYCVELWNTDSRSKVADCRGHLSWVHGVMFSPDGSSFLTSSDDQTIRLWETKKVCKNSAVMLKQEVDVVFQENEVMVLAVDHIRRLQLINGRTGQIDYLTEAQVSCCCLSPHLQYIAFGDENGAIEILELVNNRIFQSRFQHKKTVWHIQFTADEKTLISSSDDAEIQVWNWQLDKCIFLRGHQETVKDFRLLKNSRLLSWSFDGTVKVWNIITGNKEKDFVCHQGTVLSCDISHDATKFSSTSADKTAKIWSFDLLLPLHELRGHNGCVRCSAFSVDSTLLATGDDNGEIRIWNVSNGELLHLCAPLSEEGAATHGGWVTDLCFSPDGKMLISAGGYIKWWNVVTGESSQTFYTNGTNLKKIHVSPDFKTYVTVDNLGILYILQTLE
Chain of Sphingosine 1-phosphate receptor 4 (O95977 whole entry, the tested form may be a part): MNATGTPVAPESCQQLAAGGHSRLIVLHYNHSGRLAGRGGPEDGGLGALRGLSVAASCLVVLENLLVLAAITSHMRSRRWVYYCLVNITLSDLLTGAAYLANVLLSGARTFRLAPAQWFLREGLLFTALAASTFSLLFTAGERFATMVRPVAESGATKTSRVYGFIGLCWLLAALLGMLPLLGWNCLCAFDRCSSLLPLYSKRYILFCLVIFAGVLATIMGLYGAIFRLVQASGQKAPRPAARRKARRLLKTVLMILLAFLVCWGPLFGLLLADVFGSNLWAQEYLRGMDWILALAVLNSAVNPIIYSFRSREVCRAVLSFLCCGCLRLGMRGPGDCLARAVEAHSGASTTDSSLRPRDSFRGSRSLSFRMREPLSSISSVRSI
Chain of Beta Lactamase (Q932Y6 whole entry): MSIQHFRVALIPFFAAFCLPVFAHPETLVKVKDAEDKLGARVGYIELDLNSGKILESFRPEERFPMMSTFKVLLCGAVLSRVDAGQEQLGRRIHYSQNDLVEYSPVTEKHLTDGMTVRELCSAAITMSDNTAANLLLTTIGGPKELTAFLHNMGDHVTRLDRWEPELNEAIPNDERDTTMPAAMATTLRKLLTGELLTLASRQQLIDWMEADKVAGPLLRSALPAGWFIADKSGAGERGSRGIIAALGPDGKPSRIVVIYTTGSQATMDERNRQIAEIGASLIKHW

CCCCCCCCCCCCCCCC[N+](C)(C)CCN(Cc1ccc(OC)cc1)c1ncccn1 [THONZONIUM BROMIDE]
inactive: IC50 [1] > 10 µM | EC50 (Insulin-degrading enzyme [2]) 53.3 µM | IC50 [8] > 40 µM | EC50 (Insulin-degrading enzyme [9]) > 54.7 µM | IC50 [10] 17.8 µM | EC50 (HEK293 [11]) > 55.9 µM | IC50 [12] > 10 µM
active: IC50 [3] 8.37 µM | IC50 (HEK293 [4]) 5.21 µM | IC50 (Large T antigen) 15.4 µM | IC50 [5] 2.86 µM | AC50 [6] 9.42 µM | IC50 [7] 2.99 µM | AC50 (INS1) 2.54 µM | IC50 (Bcl-2-related protein A1) 6.44 µM | AC50 [13] 6.06 µM

CS(=O)(=O)c1nc(-c2ccccc2)cc(C(F)(F)F)n1
active: EC50 [14] 2.21 µM | EC50 (Protein RecA) 5.53 µM | AC50 [15] 1.53 µM | AC50 [16] 16 µM | EC50 [17] 4.36 µM | AC50 [19] 7.07 µM | EC50 [21] 4.8 µM | AC50 [22] 4.91 µM | EC50 [23] 2.55 µM | CC50 [25] 30.7 µM | IC50 [26] 1.09 µM | IC50 (CHO) 3.23 µM
10 µM: Absolute IC50 (CHOP) [18]
inactive: IC50 (Beta Lactamase) 29.1 µM
inconclusive: EC50 [20] 8.84 µM
16.7 µM (not active): IC50 [24]
